Results on one compound are retold here after patent US20030139469A1, “Use of inhibitors of soluble epoxide hydrolase to inhibit vascular smooth muscle cell proliferation” (THE REGENTS OF THE UNIVERSITY OF CALIFORNIA, priority 2002, published 2003).

Data set [1] deals with human foreskin fibroblasts. As to the kind of experiment: [3H]thymidine incorporation, human foreskin fibroblasts. Type of data set: cell-based. Particulars: PDGF-BB stimulated, similar concentrations to VSM cells, FIG. 1d. The procedure:
FIG. 1d. Human foreskin fibroblasts were treated similarly to VSM cells in FIG. 1a and [^3H]thymidine incorporation into DNA was assessed.
(In general: Incorporation of labelled thymidine or its analogues reports DNA synthesis.)

For data set [2], the system named is VSM cells. Nature of the data set: thymidine uptake into VSM cells. Format: cell-based, human. Particulars: 12 μM CDU vs DMSO vehicle, seconds to minutes, FIG. 1e. The procedure: FIG. 1e. CDU at the indicated concentrations was added to non-serum-starved cells and uptake of thymidine into the cells was assessed at the indicated times after its addition as described in Example 1. Error bars represent SD; *p<0.05 compared to (for FIGS. 1a and 1d) PDGF alone or (for FIG. 1b) serum alone or (for FIG. 1e) DMSO. Data shown are representative of at least two independent experiments.
Thymidine Uptake. To quantify thymidine uptake, 1.73×10^4 cells were distributed per well in a 24-well plate. […] The media was then adjusted to […] ^3H-methyl-thymidine (1 mCi/mL, 25 Ci/mmol, Amersham-Pharmacia). At the indicated times, medium was aspirated, the cells were washed three times with ice-cold PBS, and then incubated in 500 μL 1 M NaOH for 20 min. The mixture was neutralized with 0.5 mL 1 M HCl and diluted into scintillation fluid for liquid scintillation counting.

The subject of data set [3] is HL-60 cells. As to the kind of experiment: HL-60 cell proliferation (hemocytometer count). Format: cell-based, human. The following applies: 12 μM, 24 and 48 h, FIG. 2. As for the experimental part:
Human promyelocytic HL-60 were incubated in serum-containing medium and CDU (12 μM) or DMSO vehicle was added at time zero. At 24 and 48 h after CDU addition the cells were counted using a hemocytometer. Error bars represent SD. Data shown are representative of two independent experiments. Cell Culture. Human aortic smooth muscle cells were obtained from Clonetics (San Diego Calif.) at passage 3 and were maintained in MCBD 131 media supplemented with 2.5% FBS, 5 mg/L bovine insulin, 2 ug/L human recombinant EGF, 1 ug/L human recombinant PDGF-BB (“PDGF” is platelet derived growth factor, which is composed of a dimer of two chains, the A chain and the B chain, “PDGF-BB is a 24.3 kD homodimer of two B chains), 100 u/ml of penicillin, 100 u/ml streptomycin, and 2.5 ug/ml amphotericin B. The cells were growth-arrested by placing them in quiescence medium containing MCDB 131 medium, 20 mM HEPES (pH 7.4), 5 mg/ml transferrin, 0.5 mg/ml BSA, 50 U/ml penicillin, 50 U/ml streptomycin, and 2.5 ug/ml amphotericin B. Quiescence medium was changed daily for 1-2 days before each experiment. HL-60 cells were obtained from ATCC or from D. Hyde (UC Davis). […] At the indicated times, the number of cells in the plate was calculated by subjecting the cells to trypsinization and the cell density quantitated by light microscopy using a hemocytometer.

For data set [4], the system named is human VSM cells. As to the kind of experiment: LDH release into media. Type of data set: cell-based. The following applies: PDGF-BB or 10% serum, CDU 10 and 20 μM, FIG. 4b. The procedure:
FIG. 4b. Human VSM cells were grown continuously in the presence of either 10% serum or PDGF-BB (30 ng/ml). Upon achieving confluency, the cells were incubated with CDU at the indicated concentrations and LDH release into the media was measured as described in Example 1. Evaluation of Cell Membrane Integrity and Toxicity. To evaluate the toxicity of compounds, as indicated by cellular trypan blue permeability, cells were plated in 35 mm dishes. After two days, the medium in the dish was replaced with fresh medium supplemented with the compound of interest or vehicle. At the indicated time post-treatment, the supernatant was removed and adherent cells were removed using trypsin. After dislodging the adherent cells, the cell suspension was pooled with the supernatant and centrifuged. The resulting cell pellet was resuspended and a trypan blue solution (0.4% in normal saline) was added to the aliquot. After incubating for approximately 5 minutes, the sample was evaluated by light microscopy. To evaluate lactate dehydrogenase (LDH) release, cells were harvested and plated onto 24 well plates and serum starved for one to two days. Test compounds were added and after 65 hours, media was removed for measurement of LDH activity. LDH activity was determined by NADH oxidation using Sigma Tox-7 in vitro toxicology kit and reported as the amount of LDH activity in the media.
(In general: Release of lactate dehydrogenase indicates damage to the cell membrane.)

Data set [5] deals with LnCap prostate cancer cells. As to the kind of experiment: MTT assay LnCap. Type of data set: cell-based. The following applies: up to 40 μM. (Tetrazolium assays rely on reduction of a dye to a coloured formazan, in cell work by metabolically active cells.)
Data set [6] concerns ERK42/44 phosphorylation. Nature of the data set: Western blot phospho-MAPK in VSM cells. Format: cell-based, human. Particulars: 10 μM, 4 h after PDGF-BB, FIG. 6. The procedure: Human VSM cells were grown to 80-90% confluence and serum-starved as in FIG. 1. Four hours after stimulation with PDGF-BB (30 ng/ml) in the presence or absence of CDU (10 μM), the cells were lysed and equal protein quantities were electrophoresed and immunoblotted with phospho-MAPK antibody. Data shown are representative of three independent experiments Western Blots. After treatment with appropriate compounds for the indicated times, cells were lysed, protein concentrations were determined by the Lowry method, and equal protein quantities were electrophoresed and Western blotted.

As for `CCCCCCCCCCCCNC(=O)NC1CCCCC1` [CDU, 1-cyclohexyl-3-dodecyl urea], in data set [1], the “[3H]thymidine incorporation” value was “inhibited”. Moreover, in data set [2], the “cellular uptake of thymidine” value is given as “occurs to a similar extent”. Further, the “proliferation of HL-60 cells” value in data set [3] is “proliferated to a similar extent”. Besides, the “LDH appearance in the media” value in data set [4] is “unchanged”. For the same compound, the “toxicity, MTT assay” value in data set [5] was “no toxicity observed”. For the same compound, the “PDGF-stimulated ERK42/44 phosphorylation” value in data set [6] is listed as “no change”.
